Each structure is given as a SMILES string.

Data set [1] relates to HBV. Put plainly: Determination of HBV DNA from the supernatants of HepAD38 cells (anti-HBV activity). The following applies: Hepatitis B virus, 144 h; HBV DNA in HepAD38 supernatant, day 6, qPCR; read-out: Cell Activity (EC50). It counts as cell-based, hepatitis B virus. In short, it runs like this: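 Supernatant viral DNA was measured by LightCycler qPCR, calibrated with pCH-9/3091 plasmid, 6 days after tetracycline-free HepAD38 cultures received half-log serial compound dilutions; untreated and tetracycline-treated cells served as controls; EC50 was fitted by non-linear regression.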
(In qPCR the cycle at which signal appears reflects the starting amount.)

Data set [2] in a line: Cell viability assay (AlamarBlue) in HepAD38 cells. Conditions: human. (In general: The colour change of resazurin is a common sign of viable cells or microbes.)
Data set [3] addresses T1, HBV core protein (UniProt P03146).
T1 construct: fused on or other part: BODIPY-FL maleimide label on the C-terminal Cys150
As to the kind of experiment: Biochemical capsid assembly assay (fluorescence quenching). On the set-up: species or system hepatitis B virus. The following applies: read-out: Assembly Activity (IC50); BODIPY-FL labelled core protein, 300 μM NaCl, read 6 min after start. The procedure, abridged:
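Assembly-induced fluorescence quenching (477/525 nm) was measured 6 min after NaCl addition ([…]), against 2.5 M and 0 M NaCl controls. The labelled C150 core dimer (truncated at 149) at 1.0-2.0 μM in HEPES pH 7.5 was tested with eight half-log compound dilutions, top 100, 31.6 or 10 μM. EC50 was obtained by non-linear fit from triplicates run three times.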

T1 sequence (P03146 whole entry, looked up, the tested form may be a part): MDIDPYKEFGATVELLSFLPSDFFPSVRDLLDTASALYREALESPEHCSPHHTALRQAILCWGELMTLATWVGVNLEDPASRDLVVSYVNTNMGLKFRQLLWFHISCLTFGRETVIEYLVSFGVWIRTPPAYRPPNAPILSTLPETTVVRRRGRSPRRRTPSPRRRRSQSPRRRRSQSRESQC

Turning to `CN(CCO)C(=O)c1n[nH]c2c1CN(C(=O)c1cc3c(C(F)F)ccc(F)c3[nH]1)CC2` [Example 172, 5-[4-(difluoromethyl)-7-fluoro-1H-indole-2-carbonyl]-N-(2-hydroxyethyl)-N-methyl-1H,4H,5H,6H,7H-pyrazolo[4,3-c]pyridine-3-carboxamide], the EC50 in data set [1] lay within 1 to 25 µM. The compound also came in with a CC50 at 6 days in data set [2] greater than 10 µM. The IC50 in data set [3] is less than 5 µM.
The like results for `CN(C(=O)c1n[nH]c2c1CN(C(=O)c1cc3ccccc3[nH]1)CC2)C1CCOC1` (stereo not drawn) [Example 189, 5-(1H-indole-2-carbonyl)-N-methyl-N-(oxolan-3-yl)-1H4H,5H,6H,7H-pyrazolo[4,3-c]pyridine-3-carboxamide] were, in that order, 1 to 25 µM, greater than 10 µM and less than 100 µM.
Taken in the same sequence, the figures for `O=C(c1cc2c(F)c(F)ccc2[nH]1)N1CCc2[nH]nc(C3CCCO3)c2C1` (stereo not drawn) [Example 338, 4,5-difluoro-2-[3-(oxolan-2-yl)-1H,4H,5H,6H,7H-pyrazolo[4,3-c]pyridine-5-carbonyl]-1H-indole] were less than 1 µM, greater than 10 µM and less than 5 µM.
`CN(CCO)C(=O)c1n[nH]c2c1CN(C(=O)c1cc3c(Cl)cccc3[nH]1)CC2` [Example 58, 5-(4-chloro-1H-indole-2-carbonyl)-N-(2-hydroxyethyl)-N-methyl-1H,4H,5H,6H,7H-pyrazolo[4,3-c]pyridine-3-carboxamide]: the EC50 in data set [1] is less than 1 µM. The same compound returned a CC50 at 6 days in data set [2] greater than 100 µM. In data set [3], the half-inhibitory concentration (IC50) is less than 5 µM.
Turning to `CN(C(=O)c1[nH]nc2c1CN(C(=O)c1cc3c(Cl)c(F)ccc3[nH]1)CC2)C1CC1` [Example 324, 5-(4-chloro-5-fluoro-1H-indole-2-carbonyl)-N-cyclopropyl-N-methyl-2H,4H,5H,6H,7H-pyrazolo[4,3-c]pyridine-3-carboxamide], in data set [1], the 50% effective concentration (EC50) was less than 1 µM. For the same compound, the cytotoxic concentration (CC50) at 6 days in data set [2] was greater than 10 µM. In addition, the half-maximal inhibitory concentration (IC50) in data set [3] is less than 5 µM.
Take `COCC1(N(C)C(=O)c2n[nH]c3c2CN(C(=O)c2cc4cc(F)cc(F)c4[nH]2)CC3)CC1` [Example 309, 5-(5,7-difluoro-1H-indole-2-carbonyl)-N-[1-(methoxymethyl)cyclopropyl]-N-methyl-1H,4H,5H,6H,7H-pyrazolo[4,3-c]pyridine-3-carboxamide]: the EC50 in data set [1] was less than 1 µM. Further, in data set [2], the cytotoxic concentration (CC50) at 6 days was greater than 10 µM. In addition, the concentration for half-maximal inhibition (IC50) in data set [3] was less than 5 µM.
For `O=C(c1cc2ccc(Cl)cc2[nH]1)N1CCc2n[nH]c(-c3cscn3)c2C1` [Example 16, 6-chloro-2-[3-(1,3-thiazol-4-yl)-2H,4H,5H,6H,7H-pyrazolo[4,3-c]pyridine-5-carbonyl]-1H-indole], the EC50 in data set [1] was less than 1 µM. Further, the CC50 at 6 days in data set [2] is greater than 10 µM. Also, the IC50 in data set [3] was less than 5 µM.
Taken in the same sequence, the figures for `O=C(c1cc2c(F)cc(F)cc2[nH]1)N1CCc2[nH]nc(C3CCCO3)c2C1` (stereo not drawn) [Example 339, 4,6-difluoro-2-[3-(oxolan-2-yl)-1H,4H,5H,6H,7H-pyrazolo[4,3-c]pyridine-5-carbonyl]-1H-indole] were less than 1 µM, greater than 10 µM and less than 5 µM.
Regarding `CN(CCN)C(=O)c1[nH]nc2c1CN(C(=O)c1cc3ccccc3[nH]1)CC2` [Example 280, N-(2-aminoethyl)-5-(1H-indole-2-carbonyl)-N-methyl-2H,4H,5H,6H,7H-pyrazolo[4,3-c]pyridine-3-carboxamide], in data set [1], the EC50 is less than 1 µM. The compound also gave a CC50 at 6 days in data set [2] greater than 10 µM. The IC50 in data set [3] was less than 100 µM.
For `Cc1cc(F)cc2[nH]c(C(=O)N3CCc4[nH]ncc4C3)cc12` [Example 135, 6-fluoro-4-methyl-2-{1H,4H,5H,6H,7H-pyrazolo[4,3-c]pyridine-5-carbonyl}-1H-indole], the concentration for a half-maximal effect (EC50) in data set [1] is less than 1 µM. The CC50 at 6 days in data set [2] is greater than 100 µM. Also, in data set [3], the IC50 is less than 5 µM.
Taken in the same sequence, the figures for `CN(C(=O)c1n[nH]c2c1CN(C(=O)c1cc3ccccc3[nH]1)CC2)C1(COCC(F)(F)F)CC1` [Example 359, 5-(1H-indole-2-carbonyl)-N-methyl-N-{1-[(2,2,2-trifluoroethoxy)methyl]cyclopropyl}-1H,4H,5H,6H,7H-pyrazolo[4,3-c]pyridine-3-carboxamide] were less than 1 µM, greater than 10 µM and less than 5 µM.
Turning to `CN(C(=O)c1n[nH]c2c1CN(C(=O)c1cc3ccccc3[nH]1)CC2)C1CCCCC1` [Example 170, N-cyclohexyl-5-(1H-indole-2-carbonyl)-N-methyl-1H,4H,5H,6H,7H-pyrazolo[4,3-c]pyridine-3-carboxamide], the EC50 in data set [1] is 1 to 25 µM. Also, the cytotoxic concentration (CC50) at 6 days in data set [2] is greater than 10 µM. In addition, in data set [3], the IC50 was 5 to 10 µM.
`C[C@@H]1CCCCN1C(=O)c1n[nH]c2c1CN(C(=O)c1cc3ccccc3[nH]1)CC2` [Example 148, 2-{3-[(2R)-2-methylpiperidine-1-carbonyl]-1H,4H,5H,6H,7H-pyrazolo[4,3-c]pyridine-5-carbonyl}-1H-indole]: in data set [1], the half-maximal effective concentration (EC50) fell in the range of 1 to 25 µM. This compound gave a half-maximal cytotoxic concentration (CC50) at 6 days in data set [2] greater than 10 µM. Also, the half-maximal inhibitory concentration (IC50) in data set [3] was in the range of 5 to 10 µM.
In the case of `O=C(c1cc2ccccc2[nH]1)N1CCc2[nH]nc(C(=O)N3CC(O)C3)c2C1` [Example 40, 1-[5-(1H-indole-2-carbonyl)-1H,4H,5H,6H,7H-pyrazolo[4,3-c]pyridine-3-carbonyl]azetidin-3-ol], the half-maximal effective concentration (EC50) in data set [1] was 1 to 25 µM. Also, the CC50 at 6 days in data set [2] was greater than 100 µM. Also, the IC50 in data set [3] is less than 5 µM.
As for `O=C(c1cc2ccccc2[nH]1)N1CCc2n[nH]c(C(=O)N3CCCCC34CC4)c2C1` [Example 279, 2-(3-{4-azaspiro[2.5]octane-4-carbonyl}-2H,4H,5H,6H,7H-pyrazolo[4,3-c]pyridine-5-carbonyl)-1H-indole], in data set [1], the EC50 was less than 1 µM. This compound also displayed a CC50 at 6 days in data set [2] greater than 10 µM. Moreover, the IC50 in data set [3] was less than 5 µM.
As for `CCOCC1(N(C)C(=O)c2[nH]nc3c2CN(C(=O)c2cc4cccc(F)c4[nH]2)CC3)CC1` [Example 367, N-[1-(ethoxymethyl)cyclopropyl]-5-(7-fluoro-1H-indole-2-carbonyl)-N-methyl-2H,4H,5H,6H,7H-pyrazolo[4,3-c]pyridine-3-carboxamide], the EC50 in data set [1] is less than 1 µM. The compound also registered a 50% cytotoxic concentration (CC50) at 6 days in data set [2] greater than 10 µM. The IC50 in data set [3] was less than 5 µM.
In the case of `O=C(c1cc2ccccc2[nH]1)N1CCc2[nH]nc(NCC3CCOCC3)c2C1` [Example 81, 5-(1H-indole-2-carbonyl)-N-[(oxan-4-yl)methyl]-1H,4H,5H,6H,7H-pyrazolo[4,3-c]pyridin-3-amine], the 50% effective concentration (EC50) in data set [1] is 1 to 25 µM. The CC50 at 6 days in data set [2] is greater than 100 µM. Besides, the concentration for half-maximal inhibition (IC50) in data set [3] is less than 100 µM.
Turning to `CNC(=O)c1n[nH]c2c1CN(C(=O)c1cc3ccccc3[nH]1)CC2` [Example 285, 5-(1H-indole-2-carbonyl)-N-methyl-1H,4H,5H,6H,7H-pyrazolo[4,3-c]pyridine-3-carboxamide], in data set [1], the EC50 fell in the range of 1 to 25 µM. In data set [2], this compound gave a 50% cytotoxic concentration (CC50) at 6 days greater than 10 µM. The IC50 in data set [3] is less than 100 µM.
As to `COCC1(N(CC(F)(F)F)C(=O)c2n[nH]c3c2CN(C(=O)c2cc4ccccc4[nH]2)CC3)CC1` [Example 313, 5-(1H-indole-2-carbonyl)-N-[1-(methoxymethyl)cyclopropyl]-N-(2,2,2-trifluoroethyl)-1H,4H,5H,6H,7H-pyrazolo[4,3-c]pyridine-3-carboxamide], the EC50 in data set [1] is less than 1 µM. Further, the CC50 at 6 days in data set [2] is greater than 10 µM. In addition, the IC50 in data set [3] was less than 5 µM.

A word on the EC50: it is the concentration needed to bring the measured effect to its halfway point. As a reminder, the CC50 is the concentration at which the toxic effect on the cells reaches its halfway point. Low readings indicate greater toxicity to the cells, high ones lower toxicity to the cells. The IC50 is the concentration that gives 50% inhibition.
